This note sets out measurements from article PMC4457528, “Identification of Novel Small Molecule Inhibitors of Oncogenic RET Kinase” (PLoS ONE, 2015).

Where two headings read alike, the source gives them in different places. A value given as a limit tells only on which side of the number the result lay.

What all share (experiment): KinomeScan kinase panel, single concentration 10 µM
Type in all cases: binding

Experiment [1] addresses T1, KinomeScan kinase panel (Homo sapiens, UniProt Q9BRS2).
T1 construct: purchased DiscoveRx (KinomeScan)
T1 sequence (Q9BRS2 1-568): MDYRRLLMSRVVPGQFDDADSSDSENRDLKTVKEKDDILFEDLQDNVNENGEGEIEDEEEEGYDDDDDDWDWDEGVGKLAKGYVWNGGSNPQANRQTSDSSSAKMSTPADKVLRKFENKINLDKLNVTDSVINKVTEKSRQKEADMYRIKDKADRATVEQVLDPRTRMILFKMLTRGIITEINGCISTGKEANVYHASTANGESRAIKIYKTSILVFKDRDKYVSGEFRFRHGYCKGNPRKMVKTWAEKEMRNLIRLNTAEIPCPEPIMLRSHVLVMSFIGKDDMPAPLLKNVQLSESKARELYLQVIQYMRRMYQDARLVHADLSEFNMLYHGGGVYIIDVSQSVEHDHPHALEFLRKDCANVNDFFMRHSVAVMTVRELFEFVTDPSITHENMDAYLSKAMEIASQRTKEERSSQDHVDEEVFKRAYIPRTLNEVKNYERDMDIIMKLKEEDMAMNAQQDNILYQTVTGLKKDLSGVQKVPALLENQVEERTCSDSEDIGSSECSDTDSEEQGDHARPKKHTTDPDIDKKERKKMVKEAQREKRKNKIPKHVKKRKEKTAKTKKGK
Particulars: read-out: score (%).

Experiment [2] has as its target T2, KinomeScan kinase panel (Homo sapiens, UniProt P00533, G719C).
T2 construct: purchased DiscoveRx (KinomeScan)
Particulars: EGFR(G719C), 10 µM.

Experiment [3] has as its target T3, KinomeScan kinase panel (Homo sapiens, UniProt Q9P286).
T3 construct: purchased DiscoveRx (KinomeScan)
Particulars: read-out: score (%).

In experiment [4] the target is T4, KinomeScan kinase panel (Homo sapiens, UniProt P00519, H396P).
T4 construct: purchased DiscoveRx (KinomeScan)
Particulars: 10 µM, read-out: score (%).

For experiment [5], the target named is T5, KinomeScan kinase panel (Homo sapiens, UniProt Q9Y243).
T5 construct: purchased DiscoveRx (KinomeScan)
Conditions: AKT3, 10 µM; read-out: score (%).

Experiment [6] addresses T6, KinomeScan kinase panel (Homo sapiens, UniProt Q9P289).
T6 construct: purchased DiscoveRx (KinomeScan)
Particulars: MST4, 10 µM; read-out: score (%).

Experiment [7] concerns the target T7, KinomeScan kinase panel (Homo sapiens, UniProt O60285).
T7 construct: purchased DiscoveRx (KinomeScan)
T7 sequence (O60285 1-661): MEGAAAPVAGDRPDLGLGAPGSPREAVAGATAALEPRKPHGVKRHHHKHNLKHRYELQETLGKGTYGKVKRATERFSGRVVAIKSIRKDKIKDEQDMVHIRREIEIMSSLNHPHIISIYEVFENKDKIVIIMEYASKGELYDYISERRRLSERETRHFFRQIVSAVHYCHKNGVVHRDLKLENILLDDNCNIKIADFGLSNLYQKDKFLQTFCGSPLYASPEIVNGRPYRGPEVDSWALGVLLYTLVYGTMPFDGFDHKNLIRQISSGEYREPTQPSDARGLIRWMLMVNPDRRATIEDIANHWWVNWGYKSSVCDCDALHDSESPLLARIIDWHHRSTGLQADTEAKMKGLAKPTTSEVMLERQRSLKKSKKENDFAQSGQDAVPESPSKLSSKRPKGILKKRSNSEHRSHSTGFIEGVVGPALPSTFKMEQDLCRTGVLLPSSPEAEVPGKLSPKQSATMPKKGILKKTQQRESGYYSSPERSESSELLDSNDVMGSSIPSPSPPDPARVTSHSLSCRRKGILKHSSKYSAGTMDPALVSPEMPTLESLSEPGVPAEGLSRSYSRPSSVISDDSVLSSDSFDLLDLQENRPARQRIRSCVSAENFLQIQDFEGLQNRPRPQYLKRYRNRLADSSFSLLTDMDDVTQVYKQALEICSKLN
Particulars: ARK5, 10 µM.

For experiment [8], the target named is T8, KinomeScan kinase panel (Homo sapiens, UniProt Q9HAZ1).
T8 construct: purchased DiscoveRx (KinomeScan)
Conditions: CLK4, 10 µM; read-out: score (%).

Experiment [9] addresses T9, KinomeScan kinase panel (Homo sapiens, UniProt P24723).
T9 construct: purchased DiscoveRx (KinomeScan)
Conditions: 10 µM, read-out: score (%).

The target of experiment [10] is T10, KinomeScan kinase panel (Homo sapiens, UniProt P57078).
T10 construct: purchased DiscoveRx (KinomeScan)
T10 sequence (P57078 1-832): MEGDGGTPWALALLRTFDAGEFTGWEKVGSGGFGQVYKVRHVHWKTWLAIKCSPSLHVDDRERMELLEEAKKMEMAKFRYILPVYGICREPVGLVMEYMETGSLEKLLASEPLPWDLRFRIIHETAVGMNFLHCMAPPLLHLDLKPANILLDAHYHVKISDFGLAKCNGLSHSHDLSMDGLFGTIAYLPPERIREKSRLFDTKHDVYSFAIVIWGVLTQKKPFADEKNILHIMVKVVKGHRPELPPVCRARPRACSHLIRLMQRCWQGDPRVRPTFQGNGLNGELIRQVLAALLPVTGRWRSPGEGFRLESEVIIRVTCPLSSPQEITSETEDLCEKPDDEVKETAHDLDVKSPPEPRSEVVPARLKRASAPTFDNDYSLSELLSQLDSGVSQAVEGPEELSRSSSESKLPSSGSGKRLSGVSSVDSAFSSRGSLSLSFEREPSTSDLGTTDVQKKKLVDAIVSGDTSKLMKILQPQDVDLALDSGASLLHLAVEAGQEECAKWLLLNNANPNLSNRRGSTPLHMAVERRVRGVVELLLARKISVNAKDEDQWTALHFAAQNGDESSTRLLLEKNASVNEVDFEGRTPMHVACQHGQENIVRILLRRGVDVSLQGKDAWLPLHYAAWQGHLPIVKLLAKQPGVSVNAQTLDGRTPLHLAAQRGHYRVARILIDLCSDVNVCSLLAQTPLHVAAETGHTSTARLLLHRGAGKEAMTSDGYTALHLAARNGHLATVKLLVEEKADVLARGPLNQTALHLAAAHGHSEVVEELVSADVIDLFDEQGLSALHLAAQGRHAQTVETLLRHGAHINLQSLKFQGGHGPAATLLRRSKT
Particulars: read-out: score (%).

Experiment [11] deals with T11, KinomeScan kinase panel (Homo sapiens, UniProt Q9BVS4).
T11 construct: purchased DiscoveRx (KinomeScan)
Particulars: read-out: score (%).

T9 sequence (P24723 whole entry): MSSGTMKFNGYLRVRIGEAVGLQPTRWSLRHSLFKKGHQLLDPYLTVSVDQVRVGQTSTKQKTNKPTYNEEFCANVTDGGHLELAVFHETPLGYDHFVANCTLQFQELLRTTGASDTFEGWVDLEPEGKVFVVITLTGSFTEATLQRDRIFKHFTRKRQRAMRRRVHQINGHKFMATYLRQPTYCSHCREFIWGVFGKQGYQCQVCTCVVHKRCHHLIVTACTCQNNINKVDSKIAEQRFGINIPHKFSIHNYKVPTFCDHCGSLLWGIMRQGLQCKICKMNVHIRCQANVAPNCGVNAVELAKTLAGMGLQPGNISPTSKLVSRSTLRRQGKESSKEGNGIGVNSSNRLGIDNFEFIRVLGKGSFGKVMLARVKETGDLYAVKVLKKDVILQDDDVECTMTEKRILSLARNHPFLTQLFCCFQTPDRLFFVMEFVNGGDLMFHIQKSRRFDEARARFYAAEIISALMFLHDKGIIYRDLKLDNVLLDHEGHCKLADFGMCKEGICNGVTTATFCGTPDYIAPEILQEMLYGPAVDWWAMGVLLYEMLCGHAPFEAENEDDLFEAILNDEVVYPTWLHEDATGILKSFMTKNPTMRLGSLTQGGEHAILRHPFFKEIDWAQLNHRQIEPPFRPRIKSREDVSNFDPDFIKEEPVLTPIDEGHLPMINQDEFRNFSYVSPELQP
T3 sequence (Q9P286 whole entry): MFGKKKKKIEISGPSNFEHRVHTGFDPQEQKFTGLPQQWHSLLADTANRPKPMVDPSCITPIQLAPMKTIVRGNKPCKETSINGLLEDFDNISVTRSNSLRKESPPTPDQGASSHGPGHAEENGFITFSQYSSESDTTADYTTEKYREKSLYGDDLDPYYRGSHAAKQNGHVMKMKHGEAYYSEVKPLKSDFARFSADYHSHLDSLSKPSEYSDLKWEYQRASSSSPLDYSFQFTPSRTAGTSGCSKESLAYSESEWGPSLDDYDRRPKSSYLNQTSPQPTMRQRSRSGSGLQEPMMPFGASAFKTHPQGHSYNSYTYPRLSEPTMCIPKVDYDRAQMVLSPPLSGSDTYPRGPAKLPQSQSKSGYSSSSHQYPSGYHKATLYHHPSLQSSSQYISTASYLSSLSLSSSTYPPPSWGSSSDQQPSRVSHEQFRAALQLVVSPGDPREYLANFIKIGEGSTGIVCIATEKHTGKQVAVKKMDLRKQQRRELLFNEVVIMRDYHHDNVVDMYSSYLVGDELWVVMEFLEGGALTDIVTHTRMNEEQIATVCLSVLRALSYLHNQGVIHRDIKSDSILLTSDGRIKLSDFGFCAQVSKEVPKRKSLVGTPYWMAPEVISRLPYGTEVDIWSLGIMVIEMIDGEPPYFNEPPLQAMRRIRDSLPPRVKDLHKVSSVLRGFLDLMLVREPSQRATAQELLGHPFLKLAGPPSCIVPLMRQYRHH
T8 sequence (Q9HAZ1 whole entry): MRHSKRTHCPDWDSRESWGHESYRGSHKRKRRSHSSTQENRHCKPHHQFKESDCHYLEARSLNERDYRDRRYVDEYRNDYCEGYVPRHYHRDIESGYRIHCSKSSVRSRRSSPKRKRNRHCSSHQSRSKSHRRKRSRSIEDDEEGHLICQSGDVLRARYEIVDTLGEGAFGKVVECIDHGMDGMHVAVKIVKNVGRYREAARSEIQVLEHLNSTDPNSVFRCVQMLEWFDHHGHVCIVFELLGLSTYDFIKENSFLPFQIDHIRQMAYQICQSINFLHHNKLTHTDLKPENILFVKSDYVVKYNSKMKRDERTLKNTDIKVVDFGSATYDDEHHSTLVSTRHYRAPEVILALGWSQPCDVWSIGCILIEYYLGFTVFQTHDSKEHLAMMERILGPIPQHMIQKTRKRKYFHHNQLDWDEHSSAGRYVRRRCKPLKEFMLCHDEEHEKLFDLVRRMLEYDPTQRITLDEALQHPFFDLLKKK
T2 sequence (P00533 25-1210 G719C): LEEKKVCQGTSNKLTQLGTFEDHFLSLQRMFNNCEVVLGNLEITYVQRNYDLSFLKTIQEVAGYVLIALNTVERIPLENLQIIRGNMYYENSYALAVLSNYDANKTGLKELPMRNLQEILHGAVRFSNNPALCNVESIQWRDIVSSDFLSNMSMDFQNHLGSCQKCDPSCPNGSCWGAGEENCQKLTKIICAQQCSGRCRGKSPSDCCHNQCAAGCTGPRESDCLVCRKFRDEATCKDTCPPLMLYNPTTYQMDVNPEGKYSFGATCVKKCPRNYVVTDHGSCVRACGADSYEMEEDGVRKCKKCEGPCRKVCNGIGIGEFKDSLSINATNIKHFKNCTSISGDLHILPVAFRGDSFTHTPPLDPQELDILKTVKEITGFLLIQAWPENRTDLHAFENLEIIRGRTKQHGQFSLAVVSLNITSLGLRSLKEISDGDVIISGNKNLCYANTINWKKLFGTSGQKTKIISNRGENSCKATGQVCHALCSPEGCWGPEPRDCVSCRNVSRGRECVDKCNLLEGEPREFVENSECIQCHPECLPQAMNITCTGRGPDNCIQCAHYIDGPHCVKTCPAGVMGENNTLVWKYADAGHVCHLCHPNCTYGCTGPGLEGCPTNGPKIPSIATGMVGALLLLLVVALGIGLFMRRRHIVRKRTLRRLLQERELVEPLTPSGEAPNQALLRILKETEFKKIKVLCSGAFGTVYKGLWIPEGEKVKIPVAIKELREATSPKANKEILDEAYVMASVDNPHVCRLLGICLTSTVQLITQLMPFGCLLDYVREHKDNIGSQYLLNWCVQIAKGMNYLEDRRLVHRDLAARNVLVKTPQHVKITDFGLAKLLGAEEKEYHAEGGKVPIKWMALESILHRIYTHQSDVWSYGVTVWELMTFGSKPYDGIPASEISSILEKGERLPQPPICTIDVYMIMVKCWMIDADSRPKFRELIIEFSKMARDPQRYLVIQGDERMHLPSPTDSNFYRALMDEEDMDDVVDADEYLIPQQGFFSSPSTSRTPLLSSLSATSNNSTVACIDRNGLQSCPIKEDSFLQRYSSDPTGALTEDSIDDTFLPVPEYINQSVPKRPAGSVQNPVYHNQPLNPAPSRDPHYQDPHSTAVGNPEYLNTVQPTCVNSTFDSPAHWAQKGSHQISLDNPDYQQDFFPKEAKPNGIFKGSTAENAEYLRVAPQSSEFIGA
T5 sequence (Q9Y243 whole entry): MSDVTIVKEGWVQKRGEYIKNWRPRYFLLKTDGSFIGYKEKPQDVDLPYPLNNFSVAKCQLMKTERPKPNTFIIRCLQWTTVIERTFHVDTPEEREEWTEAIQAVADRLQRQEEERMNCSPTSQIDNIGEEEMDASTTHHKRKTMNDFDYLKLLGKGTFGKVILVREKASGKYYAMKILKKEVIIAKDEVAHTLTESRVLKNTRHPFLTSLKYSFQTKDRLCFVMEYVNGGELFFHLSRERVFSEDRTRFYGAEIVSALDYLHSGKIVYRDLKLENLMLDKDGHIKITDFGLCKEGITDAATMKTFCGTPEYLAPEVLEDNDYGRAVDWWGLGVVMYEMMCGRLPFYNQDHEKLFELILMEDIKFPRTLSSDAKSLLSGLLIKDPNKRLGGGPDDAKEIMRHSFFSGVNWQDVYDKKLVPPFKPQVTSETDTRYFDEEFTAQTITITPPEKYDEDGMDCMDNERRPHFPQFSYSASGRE
T11 sequence (Q9BVS4 whole entry): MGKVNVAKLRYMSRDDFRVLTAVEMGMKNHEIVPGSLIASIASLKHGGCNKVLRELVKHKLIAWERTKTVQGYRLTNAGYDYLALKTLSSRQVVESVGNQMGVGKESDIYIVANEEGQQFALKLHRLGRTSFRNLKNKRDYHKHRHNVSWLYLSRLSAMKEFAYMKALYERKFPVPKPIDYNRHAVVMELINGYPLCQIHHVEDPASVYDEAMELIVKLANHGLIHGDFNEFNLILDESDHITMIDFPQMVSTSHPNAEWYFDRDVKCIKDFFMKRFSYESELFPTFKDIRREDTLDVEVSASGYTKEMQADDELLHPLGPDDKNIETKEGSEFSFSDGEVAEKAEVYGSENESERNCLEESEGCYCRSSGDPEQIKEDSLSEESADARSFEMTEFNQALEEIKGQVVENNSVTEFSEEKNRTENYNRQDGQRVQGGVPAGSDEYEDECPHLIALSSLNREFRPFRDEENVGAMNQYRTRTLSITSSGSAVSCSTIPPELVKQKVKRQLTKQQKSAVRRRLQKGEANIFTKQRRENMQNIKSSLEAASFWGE
T6 sequence (Q9P289 whole entry): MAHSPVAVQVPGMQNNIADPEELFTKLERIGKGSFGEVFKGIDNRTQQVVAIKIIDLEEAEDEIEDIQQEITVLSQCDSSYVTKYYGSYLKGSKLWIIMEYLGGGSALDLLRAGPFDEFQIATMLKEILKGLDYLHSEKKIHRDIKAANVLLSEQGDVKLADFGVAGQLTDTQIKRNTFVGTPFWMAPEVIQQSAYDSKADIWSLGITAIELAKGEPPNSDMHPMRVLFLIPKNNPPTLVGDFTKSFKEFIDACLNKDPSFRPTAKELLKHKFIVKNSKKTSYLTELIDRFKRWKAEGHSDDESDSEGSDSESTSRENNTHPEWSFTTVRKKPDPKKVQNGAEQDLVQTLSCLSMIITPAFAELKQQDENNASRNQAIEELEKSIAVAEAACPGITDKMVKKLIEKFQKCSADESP

As to `CCN1CCN(Cc2ccc(NC(=O)c3ccc(C)c(NC(=O)c4cncc(-c5cccs5)c4)c3)cc2C(F)(F)F)CC1` [ALW-II-41-27], the remaining binding at 10 µM on KinomeScan kinase panel [1] (RIOK1, 10 µM) is more than 30%; on KinomeScan kinase panel [3] (PAK7, 10 µM), more than 30%; on KinomeScan kinase panel [4] (ABL1(H396P)) it was 0.5%; at KinomeScan kinase panel [5], 20%; on KinomeScan kinase panel [6], 12%; on KinomeScan kinase panel [8] it was 5.3%. The remaining binding at 10 µM on KinomeScan kinase panel [9] (PRKCH) was 4.6%; at KinomeScan kinase panel [10] (RIPK4, 10 µM), more than 30%; at KinomeScan kinase panel [11] (RIOK2, 10 µM), more than 30%. For the same compound, the entries for the “score (%)” value on KinomeScan kinase panel [2] and at KinomeScan kinase panel [7] were 0.15% and “nb (Hits values higher than 30% were considered negative (no binding: nb))”, respectively.
For the compound `CCN1CCN(Cc2ccc(NC(=O)c3ccc(C)c(/C=C/c4cnc5[nH]ccc5c4Cl)c3)cc2C(F)(F)F)CC1` [HG-6-63-01, (E)-3-(2-(4-chloro-1H-pyrrolo[2,3-b]pyridin-5-yl)vinyl)-N-(4-((4-ethylpiperazin-1-yl)methyl)-3-(trifluoromethyl)phenyl)-4-methylbenzamide], the remaining binding at 10 µM at KinomeScan kinase panel [1] (RIOK1, 10 µM) is 0.2%; at KinomeScan kinase panel [3] (PAK7/PAK5, 10 µM) it was more than 30%; at KinomeScan kinase panel [4] (ABL1(H396P)) it was 0.2%; on KinomeScan kinase panel [5], more than 30%; on KinomeScan kinase panel [6], 32%; at KinomeScan kinase panel [8] it was more than 30%. Also, the remaining binding at 10 µM at KinomeScan kinase panel [9] (PRKCH) was more than 30%; on KinomeScan kinase panel [10] (RIPK4, 10 µM), more than 30%; at KinomeScan kinase panel [11] (RIOK2, 10 µM), 33%. For the same compound, the figures for the “score (%)” value on KinomeScan kinase panel [2] and at KinomeScan kinase panel [7] were 0.1% and “nb (Hits values higher than 30% were considered negative (no binding: nb))”, respectively.
As to `CCN1CCN(Cc2ccc(NC(=O)c3ccc(C)c(C#Cc4cccnc4)c3)cc2C(F)(F)F)CC1` [XMD15-44], the remaining binding at 10 µM was 90% on KinomeScan kinase panel [1] (kinase RIOK1, 10 µM); 83% at KinomeScan kinase panel [3] (PAK7, 10 µM); 0% on KinomeScan kinase panel [4] (ABL1(H396P)-nonphosphorylated); 0% on KinomeScan kinase panel [4] (ABL1(H396P)-phosphorylated); more than 30% at KinomeScan kinase panel [5]; 21% at KinomeScan kinase panel [6]. Further, the remaining binding at 10 µM amounted to 15% on KinomeScan kinase panel [8]; 67% on KinomeScan kinase panel [9] (kinase PRKCH); 48% on KinomeScan kinase panel [10] (kinase RIPK4, 10 µM); 0.5% on KinomeScan kinase panel [11] (kinase RIOK2, 10 µM). The figures for the “score (%)” value on KinomeScan kinase panel [2] and on KinomeScan kinase panel [7] were 0.75% and “nb (Hits values higher than 30% were considered negative (no binding: nb))”, respectively.
